According to patent publication US20080221074A1, “Drug Screen and Treatment Method” (priority 2006, published 2008):

Experiments:
[1] = test system: ionizing radiation exposure; assay: survival after lethal total body irradiation (10 Gy); format: in vivo, female B6D2F1 mice; conditions: 0.6 mg s.c. daily for 3 days
Method: Treatment of ionizing radiation exposure. The effect of selected F1Cs on survival of lethally-irradiated female B6D2F1 mice were compared to control animals treated with vehicle alone. […] For Group 4, test article was administered as a 50 μL volume, by intramuscular injection for three consecutive days. The formulation was a a suspension containing 0.1% w/v carboxymethyl-cellulose, 0.9% w/v sodium chloride and 0.05% v/v phenol. The formulations were agitated to uniformly resuspend the Fl C before syringing, and injected into animals within a few minutes of drawing into the syringe to prevent settling in the syringe.
The groups of animals were treated as follows. […] The number of surviving animals is shown for day 6, 7, 12 and 21.

[2] = test system: carrageenan-λ induced pleurisy; assay: carrageenan-λ induced lung (pleural cavity) inflammation; format: in vivo, CD1 male mice; conditions: for number of neutrophils relative to negative control group (set at 100%): exudate 4 h after
Source text: Treatment of lung inflammation. Three compounds, 3β,16α-dihydroxy-17-oxoandrostane, 3α,16β,17β-trihydroxyandrostane and 3α,16α,17α-trihydroxyandrostane were used to treat inflammation in mice essentially as described (D. Auci et al., Ann. New York Acad. Sci. 1051:730-742 2005). Five to 8 week old CD1 male mice (Charles River, Calco, Italy) were used for the study. The animals were housed in a controlled environment and provided with standard rodent chow and water. Animal care was in compliance with applicable regulations on protection of animals. Mice were allocated into one of the following groups: (1) mice treated with 2% carrageenan-k in saline (carrageenan-λ treated control group), (2) mice treated with 0.1 mg, 0.01 mg or 0.001 mg 3β,16α-dihydroxy-17-oxoandrostane by subcutaneous (s.c.) injection 24 h and 1 h before carrageenan-λ administration, (3) mice treated with 0.1 mg, 0.01 mg or 0.001 mg of 3α,16α,17α-trihydroxyandrostane by s.c. injection 24 and 1 h before carrageenan; (4) mice treated with 0.1 mg, 0.01 mg or 0.001 mg […],16β,17β-trihydroxyandrostane by s.c. injection 24 h and 1 h before carrageenan-λ administration; (5) mice treated with vehicle (0.1% carboxymethylcellulose, 0.9% saline, 2% tween 80, 0.05% phenol) s.c. 24 h and 1 h before carrageenan-λ administration; (6) mice treated with rabbit anti-mouse polyclonal anti-TNF-α antibody (200 μg) given as an intraperitoneal bolus 24 h and 1 h before carrageenan-λ administration (positive control group); and (7) sham-operated mice that were not treated with carrageenan-λ. Each group consisted of 10 mice. All treatments were given in a final volume of 100 μL. Lung (pleural cavity) inflammation was induced as follows. The mice were anaesthetised with isoflurane and a skin incision was made at the level of the left sixth intercostal space. The underlying muscle was dissected and either 0.1 mL saline (control) or 0.1 mL saline containing 2% λ-carrageenan was injected into the pleural cavity. The carrageenan-λ is a potent inducer of inflammation, which is manifested in this protocol by accumulation of fluid and neutrophils in the pleural cavity. The incision was closed with a suture and the animals were allowed to recover.
At 4 h after the injection of carrageenan-λ, the animals were euthanized by exposure to CO2. The chest was carefully opened and the pleural cavity rinsed with 1 mL of saline solution containing heparin (5 U/mL) and indomethacin (10 μg/mL). The exudate and washing solution were removed by aspiration and the total volume measured. Any exudate contaminated with blood was discarded. The amount of exudate was calculated by subtracting the injected 1 mL volume from the total pleural cavity volume that was recovered. The neutrophils in the exudate were suspended in phosphate-buffer saline and counted with an optical microscope in a Burker's chamber after Trypan Blue staining. The results were analysed by one-way ANOVA followed by a Bonferroni post-hoc test for multiple comparisons. A p-value less than 0.05 was considered significant. For statistical analysis each group was compared to the control group of mice that were challenged with carrageenan-k and received no other treatment.
The table below describes the number of neutrophils from the treated animal groups relative to untreated control animals that were exposed to carrageenan-λ, but not treated with anything else (negative control group). The neutrophil number for the negative control group was set at 100% and other groups were compared to this.

[3] = test system: human T lymphocytes (PBMC); assay: human mixed lymphocyte reaction (MLR); format: cell-based; conditions: 300 nM
Source text: Human mixed lymphocyte reaction (MLR). The capacity of 3β,16α-dihydroxy-17-oxoandrostane, 3β,17β-dihydroxy-16-oxoandrostane, 17α-ethynylandrost-5-ene-3β,7β,17β-triol, and 17β-aminoandrost-5-ene-3β-ol to affect antigen specific stimulation in which human T lymphocytes respond to a specific foreign antigen (major histocompatibility complex).
Blood samples were obtained from 3 (2 males, […]) fasting, healthy human volunteers of 23-31 years old. […] The subjects were bled between 9 and 10 AM to limit possible fluctuations in the circulating levels of hormones or cytokines that could have influenced the in vitro responses of their lymphocytes. Peripheral blood mononuclear cells (PBMC) were isolated by centrifugation on Ficoll-Hypaque (density 1.077, Biochrom AG, Berlin, Germany) gradients and resuspended in culture medium (RPMI 1640 supplemented with 2 mM L-glutamine, penicillin (100 U/mL) and streptomycin ([…]) (Invitrogen s.rl., Milan, Italy). Autologous (responder) inactivated plasma was used at 10%. Five hundred thousand responder PBMC (PBMCr) and 500,000 allogeneic irradiated (30 Gy) stimulator PBMC (PBMCs) were mixed at a ratio of 1:1 in 200 μL medium and cultured for 6 days in flat bottom 96 well plates (Nunc, Roskilde, Denmark) at a concentration of 300 nM or 30 nM for each of the 4 compounds. The compounds were dissolved in ethanol and then diluted to the desired concentration with culture medium leading to a final solution containing 0.01% of ethanol. This vehicle was used as control. Controls also included PBMCr and PBMCs cultured separately. During the last 8 hours of the culture period the PBMC were pulsed with […] [^3H] thymidine (Amersham, Milan, Italy). The cells were then harvested and radioactivity incorporation measured with a beta cell counter. The mean cpm of quadruplicate wells was calculated. Proliferation of T cells was expressed as a stimulation index: SI=cpm (PMBCs xPBMCr)/cpm (PBMCr)+cpm (PBMCs). Statistical analysis was performed using the Student's t test. The cpm obtained from quadruplicate of each test compound were compared to proliferative responses obtained in control PBMCr and PBMCs cultured in the presence of the vehicle. Differences were considered significant at p<0.05.

EAE = assay: experimental allergic encephalomyelitis (EAE), PLP 139-151; format: in vivo, female SJL/J mice; conditions: 5 mg/kg daily oral gavage; through day 26
Source text: Treatment of autoimmune neurodegeneration. Three compounds, 17β-aminoandrost-5-ene-3β-ol, 17β-dimethylaminoandrost-5-ene-3β-ol and 17β-methylaminoandrost-5-ene-3β-ol were characterized for their capacity to ameliorate experimental allergic encephalomyelitis (EAE) in mice. This demyelinating condition is extensively used as a model for multiple sclerosis in humans and for testing of new therapies for treating multiple sclerosis, e.g., B. F. Bebo Jr. et al., J. Neurosci. Res. 52:420-426 1998; R. R. Voskuhl et al., Neuroscientist, 7:258-270 2001; H. Offner et al., J. Neuroimmunol., 130:128-139 2002.
In this protocol, the compounds were administered to female SJL/J mice by oral gavage at the onset of disease symptoms. An antigen was used to initiate the EAE condition in the mice. […] Immunization with this peptide antigen initiates an autoimmune Thl mediated demyelinating disease of the central nervous system. The antigen was prepared by solid phase synthesis and purified by high-performance liquid chromatography. […] The immunization protocol was subcutaneous injection over four sites on the hind flank on day 0. After immunization. the mice were assessed daily for clinical signs of EAE using the following scale: 0=no clinical signs or symptoms; 1=limp tail; 2=mild hind limb weakness and limp tail; 3=moderate hind limb weakness and limp tail or mild ataxia; 4=severe hind limb weakness and mild forearm weakness with moderate ataxia; 5=paraplegia with no more than moderate forelimb weakness; 6=paraplegia with severe forelimb weakness or severe ataxia or moribund condition.
Mice in the vehicle control group began to show observable symptoms of EAE at about 10-11 days after immunization with the PLP antigen, which is typical for the EAE disease model. The animals were dosed daily with 17β-aminoandrost-5-ene-3β-ol, 17β-dimethylaminoandrost-5-ene-3β-ol or 17β-methylaminoandrost-5-ene-3β-ol by oral gavage beginning at day 1, which was 1 day after immunization.

NF-κB = assay: inhibition of NF-κB activation in NF-κB-bla THP-1 cells after LPS stimulation; format: cell-based, human; conditions: Homo sapiens, THP-1
Source text: Inhibition of NF-κB in vitro. […] Activation of NF-κB increases expression of a number of genes that mediate inflammation. This protocol used human THP-1 cells, which are human mononuclear blood cells with a monocyte phenotype. The cell line, referred to as NF-κB-bla THP-1, contained a β-lactamase reporter gene under the control of the NF-kB response element (Invitrogen, CellSensor™, product No. K1176). In this cell line, the β-lactamase reporter gene is stably integrated in the THP-1 cells. This cell line was used to detect agonists or antagonists of the NF-κB signaling pathway. These NF-κB-bla THP-1 cells respond to the presence of tumor necrosis factor alpha (TNFα) or bacterial lipopolysaccharide (LPS) by increased expression of the β-lactamase reporter gene. The level of β-lactamase enzyme activity was measured by fluorescence resonance energy transfer ratiometric detection. TNFα and LPS are both potent inflammation-inducing agents that activate NF-κB in THP1 cells. In this assay, compounds that decrease NF-κB activity, and thus β-lactamase, in the presence of TNFα or LPS are exerting an anti-inflammation activity.
The NF-κB-bla THP-1 cells were maintained by passaging or feeding as needed. […] The cells were plated at 20,000 cells/well in a 384-well Black-wall, clear bottom assay plates (Costar#3712-TC low fluorescence background plates) approximately 24 hours before adding either TNFα at 10 ng/mL or LPS at 0.2 ng/mL to activate NF-κB.
The assays were usually conducted 2-4 times for each compound and the values shown below are averages for each compound.

[4] = metabolic stability in liver microsomes, species not stated; conditions: compared with androst-5-ene-3β,17β-diol
Method: The protocol was performed as follows. […] (2) Set up samples as follows. […] (4) The internal standard/acetonitrile solution.

Structure (SMILES) | number of surviving animals (groups of 12) ([1]; day 6) | number of surviving animals (groups of 12) ([1]; day 7) | number of surviving animals (groups of 12) ([1]; day 12) | number of surviving animals (groups of 12) ([1]; day 21) | anti-inflammation activity compared to vehicle controls ([2]; oral gavage, 1 mg and 0.1 mg (17α-ethynyl triol), 40 mg/kg (17β-amino compound)) | immune suppression (inhibition of the MLR) [3] | clinical severity of EAE symptoms (EAE) | IC50 (NF-κB) [µM] | number of neutrophils relative to negative control group (set at 100%) ([2]; 0.01 mg s.c. 24 h and 1 h before carrageenan-λ) [%] | number of neutrophils relative to negative control group (set at 100%) ([2]; 0.1 mg s.c. 24 h and 1 h before carrageenan-λ) [%] | rate of metabolism by microsomes [4]
C[C@]12CC[C@H]3[C@@H](CC=C4C[C@@H](O)CC[C@@]43C)[C@@H]1CC[C@@H]2N [17β-aminoandrost-5-ene-3β-ol] | 12 | 12 | 12 | 11 | statistically significant anti-inflammation activity | moderately immune suppressive | reduced the clinical severity |  |  |  | 
C[C@]12CC[C@H]3[C@@H](CCC4C[C@H](O)CC[C@@]43C)[C@@H]1C[C@@H](O)[C@H]2O (stereo partly drawn) [3α,16α,17α-trihydroxyandrostane] |  |  |  |  |  |  |  | > 10 | 45 | 30 | metabolized by microsomes at a rate similar to the androst-5-ene-3β,17β-diol reference compound
C[C@]12CC[C@H]3[C@@H](CC=C4C[C@@H](O)CC[C@@]43C)[C@@H]1C[C@@H](O)[C@@H]2O [androst-5-ene-3β,16α,17β-triol] |  |  |  |  |  |  |  |  |  |  | metabolized by microsomes at a rate similar to the androst-5-ene-3β,17β-diol reference compound
